In patent publication US7691601B2, “Medium for detecting and/or identifying of microorganisms” (priority 2003, dated 2010):

Legend:
[1] = test system: Salmonella Enteritidis; assay: Coloration of Salmonella Enteritidis colonies on detection medium; format: cell-based; design: key: 0=no coloration; 0.5=trace of coloration; 1=weak coloration; 2=strong coloration
Procedure: (§1) Preparation of the detection medium: A volume of 250 ml of detection medium is prepared from a powdered medium having the following composition:
(§2) Melting is carried out at 100° C., and the medium is autoclaved at 121° C. for 15 minutes. The additives are then added to the medium: Magenta C8 (500 mg/l; B-7102, BIOSYNTH, Staad, Switzerland); X-glucoside (75 mg/l; B-7250, BIOSYNTH, Staad, Switzerland); cefsulodine (10 mg/l; C 4786, Sigma, St Quentin Fallavier, France) and various concentrations of the inhibitor O,O-diethyl p-nitrophenyl phosphate (Paraoxon® ethyl; CAS No. 311-45-5; 36186, Riedel-de Haën, St Quentin Fallavier, France; 0; 1; 5 or 10 mg/l).
(§3) The various detection media thus obtained are then poured into Petri dishes.
(§4) Seeding of Salmonella bacteria: 10 μl of stools are deposited onto a Petri dish, this stool suspension is mixed or not mixed with 10 μl of a suspension of Salmonella (0.5 McF) and isolated as 3 dials on a Petri dish. Various […] and various Salmonella strains originating from the applicant's collection are used according to this protocol. The Petri dishes are incubated at 37° C. for 24 hours. The appearance of a coloration at the point of deposit of the stool (“deposit” column) and at the Salmonella colony (“colony” column) is read according to a semi-quantitative scale: • 0=no coloration • 0.5=trace of coloration • 1=weak coloration • 2=strong coloration The results obtained are given in Table 1.
as §2, with “O,O-dimethyl” for “O,O-diethyl”, “methyl;” for “ethyl;”, “950-35-6;” for “311-45-5; 36186,”, “5, 10, 25” for “0; 1; 5 or 10”
(§5) Seeding of Salmonella bacteria: The Petri dishes are inoculated, incubated and read as in Example 1.
(§6) Preparation of the detection medium: 250 ml of the medium of Example 1, in which the O,O-diethyl p-nitrophenyl phosphate is replaced with various concentrations of O,O-di-(2-chloroethyl)-O-(3-chloro-4-methylcoumarin-7-yl)phosphate (Haloxon®; CAS No. 321-55-1; R276995, Sigma, St Quentin Fallavier, France; 0; 1; 10; 100 or 1000 mg/l), are prepared according to the method of Example 1.
(§7) The various selection media thus obtained are then poured into Petri dishes.

[2] = test system: free esterases in a stool sample; assay: Coloration at the point of deposit of the stool on Salmonella detection medium (Magenta C8); format: biochemical; design: key to Deposit coloration: 0=no coloration; 0.5=trace of coloration; 1=weak coloration; 2=strong coloration; conditions: for Deposit coloration: Table 1
Procedure: as §1, §2, §3, §4
as §2, with “O,O-dimethyl” for “O,O-diethyl”, “methyl;” for “ethyl;”, “950-35-6;” for “311-45-5; 36186,”, “5, 10, 25” for “0; 1; 5 or 10”
as §5, §6, §7

[3] = test system: Candida albicans; assay: Coloration of Candida albicans colonies on detection medium; format: cell-based; design: key: 0=absence of coloration; 0.5=trace coloration; 1=weak coloration; 2=strong coloration; conditions: Table 4, 5 mg/l, stool B
Procedure: as §1
(§8) Melting is carried out at 100° C., and the medium is autoclaved at 121° C. for 15 minutes. The additives are then added to the medium: Magenta C8 (500 mg/l; B-7102, BIOSYNTH, Staad, Switzerland); X-glucoside (75 mg/l; B-7250, BIOSYNTH, Staad, Switzerland); cefsulodine (10 mg/l; C 4786, Sigma, St Quentin Fallavier, France), and also the esterase inhibitor: • ? O,O-diethyl p-nitrophenyl phosphate: 5 mg/l • ? O,O-dimethyl p-nitrophenyl phosphate: 25 mg/l or • ? O,O-di-(2-chloroethyl)-O-(3-chloro-4-methylcoumarin-7-yl)phosphate: 75 mg/l
as §7
(§9) Seeding of yeast of the Candida genus: 10 μl of stools are deposited onto a Petri dish, and this stool suspension is mixed or not mixed with 10 μl of a suspension of Candida and isolated as 3 dials on a Petri dish. Various stools and various strains of Candida genus originating from the applicant's collection are used according to this protocol. The Petri dishes are incubated at 37° C. for 24 hours.
(§10) The appearance of a coloration at the point of deposit of the stool and in the Candida colonies is read according to a semi-quantitative scale: • 0=absence of coloration • 0.5=trace coloration • 1=weak coloration • 2=strong coloration.

[4] = Colonies column read for stool without added strain, Salmonella detection medium; design: key: 0=no coloration; 0.5=trace of coloration; 1=weak coloration; 2=strong coloration; conditions: Table 1, no strain
Procedure: as §1, §2, §3, §4
as §2, with “O,O-dimethyl” for “O,O-diethyl”, “methyl;” for “ethyl;”, “950-35-6;” for “311-45-5; 36186,”, “5, 10, 25” for “0; 1; 5 or 10”
as §5, §6, §7

[5] = test system: free esterases in stools; assay: Coloration at the point of deposit of the stool on Candida detection medium; format: biochemical; design: key: 0=no coloration; 0.5=trace of coloration; 1=weak coloration; 2=strong coloration; conditions: Table 4, 5 mg/l
Procedure: as §1, §8, §7, §9, §10

[6] = test system: free esterases in stools; assay: as above; format: biochemical; design: key: 0=absence of coloration; 0.5=trace coloration; 1=weak coloration; 2=strong coloration; conditions: Table 4, 5 mg/l, no strain
Procedure: as §1, §8, §7, §9, §10

CCOP(=O)(OCC)Oc1ccc([N+](=O)[O-])cc1 [O,O-diethyl p-nitrophenyl phosphate]
1: Deposit coloration ([5]; stool A, Candida albicans) | Deposit coloration ([5]; stool A, Candida dubliniensis) | Deposit coloration ([5]; stool A, Candida krusei) | Deposit coloration ([5]; stool B, Candida albicans) | Deposit coloration ([5]; stool B, Candida dubliniensis) | Deposit coloration ([5]; stool B, Candida krusei)
0.5: Deposit coloration ([2]; 1 mg/l, stool A, Salmonella Enteritidis) | Deposit coloration ([2]; 1 mg/l, stool A, Salmonella Paratyphi A) | Deposit coloration ([2]; 1 mg/l, stool A, Salmonella Typhi) | Deposit coloration ([2]; 1 mg/l, stool A, no strain) | Colonies coloration [3]
2: Colonies coloration ([1]; Table 1, 1 mg/l, stool A) | Colonies coloration ([1]; Table 1, 1 mg/l, stool B) | Colonies coloration ([1]; Table 1, 5 mg/l, stool A) | Colonies coloration ([1]; Table 1, 5 mg/l, stool B) | Colonies coloration ([1]; Table 1, 10 mg/l, stool A) | Colonies coloration ([1]; Table 1, 10 mg/l, stool B)
greatly inhibited: Aspecific enzymatic reactions due to the presence of free enzymes ([2]; stools, Salmonella detection medium, summary in words)
0: Deposit coloration ([2]; 1 mg/l, stool B, Salmonella Enteritidis) | Deposit coloration ([2]; 1 mg/l, stool B, Salmonella Paratyphi A) | Deposit coloration ([2]; 1 mg/l, stool B, Salmonella Typhi) | Deposit coloration ([2]; 1 mg/l, stool B, no strain) | Deposit coloration ([2]; 5 mg/l, stool A, Salmonella Enteritidis) | Deposit coloration ([2]; 5 mg/l, stool A, Salmonella Paratyphi A) | Deposit coloration ([2]; 5 mg/l, stool A, Salmonella Typhi) | Deposit coloration ([2]; 5 mg/l, stool A, no strain) | Deposit coloration ([2]; 5 mg/l, stool B, Salmonella Enteritidis) | Deposit coloration ([2]; 5 mg/l, stool B, Salmonella Paratyphi A) | Deposit coloration ([2]; 5 mg/l, stool B, Salmonella Typhi) | Deposit coloration ([2]; 5 mg/l, stool B, no strain) | Deposit coloration ([2]; 10 mg/l, stool A, Salmonella Enteritidis) | Deposit coloration ([2]; 10 mg/l, stool A, Salmonella Paratyphi A) | Deposit coloration ([2]; 10 mg/l, stool A, Salmonella Typhi) | Deposit coloration ([2]; 10 mg/l, stool A, no strain) | Deposit coloration ([2]; 10 mg/l, stool B, Salmonella Enteritidis) | Deposit coloration ([2]; 10 mg/l, stool B, Salmonella Paratyphi A) | Deposit coloration ([2]; 10 mg/l, stool B, Salmonella Typhi) | Deposit coloration ([2]; 10 mg/l, stool B, no strain) | Colonies coloration ([4]; 1 mg/l, stool A) | Colonies coloration ([4]; 1 mg/l, stool B) | Colonies coloration ([4]; 5 mg/l, stool A) | Colonies coloration ([4]; 5 mg/l, stool B) | Colonies coloration ([4]; 10 mg/l, stool A) | Colonies coloration ([4]; 10 mg/l, stool B) | Deposit coloration ([6]; stool A) | Deposit coloration ([6]; stool B)
